Source: publication PMC3656107, “Polymorphisms in the F8 Gene and MHC-II Variants as Risk Factors for the Development of Inhibitory Anti-Factor VIII Antibodies during the Treatment of Hemophilia A: A Computational Assessment” (PLoS Computational Biology, 2013)

Assays:
MHC-II DRB1*15:03 [1] = target: T1, MHC-II DRB1*15:03 (Homo sapiens, UniProt P01903+P01911, Y59H); assay: Cell-free REVEAL class II binding assay; settings: signal of test peptide as percentage of allele-specific positive control peptide, fluorescence, conformation-specific monoclonal antibody
T1 construct: purchased ProImmune
T1 sequence (P01903 26-254, other chains not shown): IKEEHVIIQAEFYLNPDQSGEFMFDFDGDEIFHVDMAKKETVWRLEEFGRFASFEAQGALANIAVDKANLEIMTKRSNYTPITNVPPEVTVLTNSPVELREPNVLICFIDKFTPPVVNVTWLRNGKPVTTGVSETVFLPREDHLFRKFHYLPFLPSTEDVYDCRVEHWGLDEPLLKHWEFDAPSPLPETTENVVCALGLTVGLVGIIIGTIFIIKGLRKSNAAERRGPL
From the text: (§1) We used a proprietary high throughput, REVEAL binding assay (ProImmune, www.proimmune.com) to estimate the binding of individual test peptides to the following MHC-II variants: DRB1*03:01, DRB1*04:01, DRB1*07:01, DRB1*11:01, DRB1*15:01 and DRB1*15:03 [28]. Detection of a peptide binding to each MHC-II protein is based on the presence or absence of the native conformation of the MHC-peptide complex. The peptide-MHC-II complex is detected by an increase in a fluorescence signal due to the binding of a specific monoclonal antibody. Each test-peptide is given a score relative to a positive control peptide, which is a known T-cell epitope for that MHC-II molecule. The score is reported quantitatively as a percentage of the signal generated by the test peptide compared with the positive control peptide. Assay performance is evaluated by including in each set of measurements an intermediate control peptide which is known to bind the MHC-II molecule but with a lower affinity than the positive control peptide. Note that the positive control peptide used to determine the binding score is different from the positive control peptides depicted in the figures, which are known T-cell epitopes identified in the FVIII molecule.

MHC-II DRB1*15:01 [2] = target: T2, MHC-II DRB1*15:01 (Homo sapiens, UniProt P01903+P01911); assay: Cell-free REVEAL class II binding assay; settings: signal of test peptide as percentage of allele-specific positive control peptide, fluorescence, conformation-specific monoclonal antibody
T2 construct: purchased ProImmune
From the text: as §1

MHC-II DRB1*07:01 [3] = target: T3, MHC-II DRB1*07:01 (Homo sapiens, UniProt P01903+P01911, A100R/A102G/A103Q/D57E/D86V/E43K/F76Y/K127E/L162R/M171V/P40G/Q125H/Q99D/R33Q/R42Y/R54Q/S133A/S66F/T210M/V115G/Y107V/Y59L/Y89S); assay: Cell-free REVEAL class II binding assay; settings: signal of test peptide as percentage of allele-specific positive control peptide, fluorescence, conformation-specific monoclonal antibody
From the text: as §1

MHC-II DRB1*03:01 [4] = target: T4, MHC-II DRB1*03:01 (Homo sapiens, UniProt P01903+P01911, A100K/A102G/A103R/A169T/F55Y/I96L/K41T/L162R/M171V/P40S/Q125H/Q178H/Q39Y/R42S/S66N/T106N/T262R/W38E/Y61H); assay: Cell-free REVEAL class II binding assay; settings: signal of test peptide as percentage of allele-specific positive control peptide, fluorescence, conformation-specific monoclonal antibody
T4 sequence (P01903 26-254 limits assumed, other chains not shown): as the sequence (P01903 26-254, other chains not shown) above
From the text: as §1

MHC-II DRB1*11:01 [5] = target: T5, MHC-II DRB1*11:01 (Homo sapiens, UniProt P01903+P01911, A100R/A169T/A87E/I96F/K41T/L162R/M171V/P40S/Q125H/Q178H/Q39Y/Q99D/R42S/S66Y/T262R/V115G/W38E); assay: Cell-free REVEAL class II binding assay; settings: signal of test peptide as percentage of allele-specific positive control peptide, fluorescence, conformation-specific monoclonal antibody
T5 sequence (P01903 26-254 limits assumed, other chains not shown): as the sequence (P01903 26-254, other chains not shown) above
From the text: as §1

MHC-II DRB1*04:01 [6] = target: T6, MHC-II DRB1*04:01 (Homo sapiens, UniProt P01903+P01911, A100K/A169T/F76Y/I96L/K127E/L162R/M171V/N62H/P40V/Q125Y/R42H/S133A/S149N/S66Y/V115G/V209L/W38E); assay: Cell-free REVEAL class II binding assay; settings: signal of test peptide as percentage of allele-specific positive control peptide, fluorescence, conformation-specific monoclonal antibody
From the text: as §1

MHC-II DRB1*15:03 [7] = target: T1, MHC-II DRB1*15:03; assay: Cell-free REVEAL class II stability assay; settings: half-life of peptide-MHC-II complex (h, capped at 120) x Binding Score / 100, conformational ELISA
Experimental: (§2) We measured the half-life of each peptide-MHC-II complex using REVEAL peptide-MHC affinity assays developed by ProImmune Ltd. (Oxford, UK). On-rates of peptides were measured over a 96-hr period at 10°C. A unique positive control peptide was used for each MHC-II allele. Samples of assembling peptide-MHC complexes were taken at defined time points and snap-frozen in liquid nitrogen prior to analysis. Assembly of peptide-MHC complexes was detected using a conformational ELISA involving an anti-HLA antibody. On-rates were calculated by fitting data to a one-phase association curve: [drawing 1] To determine the off-rates of the peptides, samples of dissociating complexes were taken at defined time points and frozen in liquid nitrogen prior to analysis. Percent denaturation of peptide-MHC complexes was also detected using a conformational ELISA. Off-rates were calculated by fitting data to a one-phase dissociation curve: [drawing 2] On- and off-rate half-life values (t1/2) were calculated from the rate constant (k) using the following equation: [drawing 3] To obtain a normalized stability score, the half-life values were multiplied by the Binding Score (see above) and divided by 100.

MHC-II DRB1*15:01 [8] = target: T2, MHC-II DRB1*15:01; assay: Cell-free REVEAL class II stability assay; settings: half-life of peptide-MHC-II complex (h, capped at 120) x Binding Score / 100, conformational ELISA
Experimental: as §2

MHC-II DRB1*07:01 [9] = target: T3, MHC-II DRB1*07:01; assay: Cell-free REVEAL class II stability assay; settings: half-life of peptide-MHC-II complex (h, capped at 120) x Binding Score / 100, conformational ELISA
Experimental: as §2

MHC-II DRB1*03:01 [10] = target: T4, MHC-II DRB1*03:01; assay: Cell-free REVEAL class II stability assay; settings: half-life of peptide-MHC-II complex (h, capped at 120) x Binding Score / 100, conformational ELISA
Experimental: as §2

MHC-II DRB1*11:01 [11] = target: T5, MHC-II DRB1*11:01; assay: Cell-free REVEAL class II stability assay; settings: half-life of peptide-MHC-II complex (h, capped at 120) x Binding Score / 100, conformational ELISA
Experimental: as §2

MHC-II DRB1*04:01 [12] = target: T6, MHC-II DRB1*04:01; assay: Cell-free REVEAL class II stability assay; settings: half-life of peptide-MHC-II complex (h, capped at 120) x Binding Score / 100, conformational ELISA
Experimental: as §2

Sequence | Binding Score (MHC-II DRB1*15:03 [1]) [%] | Binding Score (MHC-II DRB1*15:01 [2]) [%] | Binding Score (MHC-II DRB1*07:01 [3]) [%] | Binding Score (MHC-II DRB1*03:01 [4]) [%] | Binding Score (MHC-II DRB1*11:01 [5]) [%] | Binding Score (MHC-II DRB1*04:01 [6]) [%] | Stability Index (MHC-II DRB1*15:03 [7]) | Stability Index (MHC-II DRB1*15:01 [8]) | Stability Index (MHC-II DRB1*07:01 [9]) | Stability Index (MHC-II DRB1*03:01 [10]) | Stability Index (MHC-II DRB1*11:01 [11]) | Stability Index (MHC-II DRB1*04:01 [12])
DVRPLYSRRLPKGVK [synthetic wild type FVIII 15 mer peptide, region of ns-SNP R484H] | 2.4 | 56.2 | 0.2 | 0.1 | 16.9 | 0.2 | 2.8 | 67.4 | 0.2 | 0.2 | 3.0 | 0.0
FSSLYISQFIIMYSL [synthetic wild type FVIII 15 mer peptide] | 0.3 | 23.3 | 0.0 | 0.6 | 0.3 | 1.5 | 0.1 | 28.0 | 0.0 | 0.0 | 0.0 | 0.4
GITDVRPLYSRRLPK [synthetic wild type FVIII 15 mer peptide, region of ns-SNP R484H] | 2.6 | 29.1 | 2.0 | 10.8 | 13.2 | 0.8 | 3.1 | 34.9 | 0.6 | 3.7 | 0.6 | 0.1
GPTKSDPRCLTRYYS [synthetic wild type FVIII 15 mer peptide] | 3.8 | 63.6 | 0.0 | 4.8 | 1.2 | 0.5 | 0.0 | 7.2 | 0.0 | 1.6 | 0.0 | 0.1
HKMVYEDTLTLFPFS [synthetic wild type FVIII 15 mer peptide] | 0.1 | 2.4 | 0.0 | 56.5 | 5.4 | 24.2 | 0.1 | 2.9 | 0.0 | 14.2 | 0.2 | 5.5
IARYIRLHPTHYSIR [synthetic wild type FVIII 15 mer peptide] | 103.9 | 3379.6 | 0.0 | 1.0 | 150.5 | 61.3 | 124.6 | 4055.5 | 0.0 | 0.0 | 36.2 | 38.8
IFNPPIIARYIRLHP [synthetic wild type FVIII 15 mer peptide] | 3.8 | 1224.5 | 0.0 | 0.7 | 61.5 | 1.7 | 4.5 | 1469.4 | 0.0 | 0.0 | 6.3 | 0.0
IIMYSLDGKKWQTYR [synthetic wild type FVIII 15 mer peptide] | 47.8 | 1853.0 | 0.0 | 6.0 | 23.3 | 8.3 | 57.3 | 2223.6 | 0.1 | 1.7 | 1.4 | 0.7
KMVYEDTLTLFPFSG [synthetic wild type FVIII 15 mer peptide] | 0.0 | 3.0 | 0.0 | 57.6 | 11.7 | 29.7 | 0.0 | 0.2 | 0.0 | 21.0 | 0.0 | 8.3
